Measurements published in patent publication US5411983A, “Certain hyrdoxy-phosphinyl-oxy-phenylmethyl-imidazolium hydroxide inner salts as PAF antagonists” (American Cyanamid Company, priority 1993, dated 1995).
Counter-ions that a name gives are not always drawn.

Assays:
[1] = biological target: T1, PAF receptor (Oryctolagus cuniculus, UniProt G1TEI7); assay: Inhibition of PAF induced platelet aggregation in washed rabbit platelets; assay type: cell-based; set-up: In some experiments, washed platelets were used instead of PRP; endogenous in cells; host or cells: washed rabbit platelets; settings: for Ki: calculated from IC50, [PAF] and EC50; for IC50: challenge concentration of PAF 5E9M [sic]
T1 sequence (G1TEI7 1-342): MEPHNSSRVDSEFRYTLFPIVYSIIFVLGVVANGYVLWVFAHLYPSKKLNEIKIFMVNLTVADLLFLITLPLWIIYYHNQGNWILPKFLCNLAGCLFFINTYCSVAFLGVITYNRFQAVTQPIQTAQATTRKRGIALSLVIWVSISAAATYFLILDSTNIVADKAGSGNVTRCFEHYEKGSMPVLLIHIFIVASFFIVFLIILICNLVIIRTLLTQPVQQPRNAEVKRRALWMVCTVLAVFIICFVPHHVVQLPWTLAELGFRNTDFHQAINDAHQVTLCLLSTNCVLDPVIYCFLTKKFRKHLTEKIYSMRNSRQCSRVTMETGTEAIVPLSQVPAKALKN
Experimental: (§1) Platelet activating factor (PAF) compounds were evaluated as PAF receptor antagonists in vitro by measuring inhibition of PAF induced platelet aggregation. Platelet aggregation was measured by a modification of the method of A. Wissner, et. al., J. Med. Chem., 27, 1174, 1984.
(§2) Approximately 120-240 ml of blood were collected by cardiac puncture from unanesthetized male New Zealand White rabbits (Whaley's Summit View Farms, Belvedere, N.J.) with the use of 3.2% sodium citrate anticoagulant (1 part of citrate/10 parts of blood). All syringes and pipets were plastic. The blood was gently mixed and immediately centrifuged at 800 rpm for 10 minutes at room temperature to recover the platelet rich plasma (PRP). Platelet poor plasma (PPP) was prepared by centrifuging PRP at 2800 rpm for 10 minutes at room temperature.
(§3) Dilutions (1:3000) Of PRP in Isoton diluent were made and platelet counts were determined on a Coulter Thrombocounter which was standardized with platelet reference standards (Interscience Platelet Control, Portland, Oreg.). PRP platelet counts were adjusted to 500,000 platelets/μl by the addition of PPP.
(§4) L-PAF was obtained from Calbiochem. A stock solution of 1-2 E-3M was prepared in 10% ethanol in water and serial working dilutions were made using phosphate buffered saline (PBS). 1-2 E-3M stock solutions of test compounds were prepared in 100% methanol and serially diluted in PBS. All solutions were made up in plastic tubes, stored on ice and protected from heat and light. Solutions were prepared fresh or frozen at -20° C. and used within 48 hours.
(§5) Incubation mixtures consisted of 400 μl PRP, 50 μl of PBS diluent or test compound and 50 μl of PAF agonist. More specifically, 400 μl of PRP was stabilized in a cuvette for 1-2 minutes at 37° C. in the aggregometer to achieve a stable baseline, then 50 μl of PBS or test compound, was added and incubated for 5 minutes before addition of the challenge concentration of PAF ([…], as determined from the dose response curve for PAF for that experiment). Aggregation was monitored for 5 minutes. Samples containing test compound or diluent were run simultaneously for comparison. Test compounds were initially evaluated at a screening concentration of 1E-5M. Those producing ≥ 50% inhibition of the magnitude of aggregation were then reevaluated in a dose response fashion (final concentrations 1E-7M to 5E-5M) and IC50 values were determined. Ki values were also calculated in some cases from [formula] where Ki =inhibitory constant
(§6) IC50 =molar concentration of test compound which gives 50% inhibition
(§7) [PAF]=molar concentration of PAF used as challenges
(§8) EC50 =molar concentration of PAF which gives 50% of maximal aggregation.
(§9) The recording equipment consisted of single or dual channel Chronolog aggregometers connected to dual channel 10 MV full scale deflection Omniscribe chart recorders (Houston Instruments). […] The bead suspension was used to set the 0% light transmission mark and clear water was used to set the 100% light transmission mark. These limits defined a full scale deflection. The aggregation traces were analyzed by a digitizing method (C. Kohler and B. Zoltan, J. Pharm. Methods, 12, 113, 1984) with x, y coordinate data stored in a computer file. A suitable program computed parameters of interest such as the magnitude of aggregation.
In some experiments, washed platelets were used instead of PRP. Washed platelet suspensions were prepared as follows. PRP was centrifuged at 2800 rpm for 10 minutes to obtain PPP and a platelet pellet. The pellet was gently suspended and washed in calcium free, albumin free Tyrode's buffer, pH 6.3. The suspension was recentrifuged and the washed pellet was resuspended in normal Tyrodes', buffer (with calcium, but albumin free), pH 7.4. Platelet counts were adjusted to 500,00 platelets/μl.

[2] = test system: PAF induced vascular permeability change in mouse skin; assay: Inhibition of PAF induced vascular permeability change in mouse skin; assay type: in vivo, mouse (Hilltop ICR); settings: ip, 0.5 h, test compound i.p., PAF i.d., read-out: Inhibition of Vascular Permeability Lesion (ED50 mg/kg)
Experimental: Inhibition of PAF Induced Vascular Permeability Change in Mouse Skin
The rationale for this test is similar to the coinjection test in guinea pigs; however, the test compound was given intraperitoneally rather than coinjected.
Test solutions were prepared as follows: An 80 μg portion of PAF was dissolved in 40 ml of saline to yield a concentration of 2000 ng/ml. A 10 mg portion of histamine diphosphate was dissolved in 100 ml of saline to yield a concentration 100 μg/ml. Test compounds were dissolved in saline and given intraperitoneally (20 mg/kg) 1/2 hour before intradermal challenge with PAF or histamine.
The animals used were Hilltop ICR mice, shaved on their flanks one day before use. The mice were randomly assigned to treated and control groups and were given test compound or saline 1/2 hour before challenge. Each mouse was injected via a tail vein with 0.25 ml of 0.05% Evans' blue dye immediately before the PAF or histamine intradermal injections were made (0.05 ml each), one per side.
Thirty minutes later the animals were killed and the lesions areas measured as described above. Lesion areas in treated animals were expressed as a percent of the control lesions and an ED50 (mg/kg) was calculated from an arcsine area vs. log dose transform.

[3] = test system: PAF induced lethality; assay: PAF induced lethality in the mouse; assay type: in vivo, mouse (ICR); settings: ip, 1 h, mice, test compound i.p. 1/2 hour before PAF i.v., dose that protects 1/2 the animals, read-out: PAF induced Lethality PD50 (mg/kg I.P., 1/2 hour)
Experimental: PAF Induced Lethality in the Mouse
Test compounds were evaluated for their ability to prevent death induced by an intravenous injection of a lethal dose of PAF.
ICR mice were given test compounds intraperitoneally as described under Inhibition of PAF Induced Vascular Permeability Change in Mouse Skin, 1/2 hour before an intravenous dose of 100 μg/kg PAF in saline. One hour later the number of dead mice were recorded. Protection was expressed as percent survivors in treated group/percent survivors in control group.

[4] = test system: PAF induced vascular permeability change in guinea pig skin
Description: Platelet Activating Factor (PAF) given intradermally, increases capillary permeability, and plasma proteins (e.g albumin) leak from the vascular space into the interstitial fluids of the skin. If the albumin has been previously stained with Evans' blue dye, the lesion area can be visualized as a blue spot in the .skin. A specific PAF antagonist inhibits the development of increased capillary permeability caused by PAF and reduces the leakage of proteins into the skin. Test compounds were evaluated for non-specific effects by monitoring their ability to inhibit or reduce a histamine induced increase in capillary permeability.
Test Solutions were prepared as follows: Evans' Blue Dye (Sigma E2129) was dissolved in saline to yield a 0.1% w/v solution. A 2 mg/ml stock chloroform solution of PAF (1-phosphotidyl, acetyl-O-alkyl; Sigma P9525) was diluted in saline to give final concentrations of 500 and 250 ng/ml. Saline dilutions were made fresh for each test. Histamine diphosphate solutions (Sigma H7375) were prepared by dissolving 10 mg in 100 ml of saline and diluting to 20 μg/ml with saline. Test compounds were dissolved in ethanol at 10 mg/ml and stored at -70° C. Injection mixtures were made by placing 10 μl of test compound solution into 1.0 ml of either the PAF solutions or the histamine solution.
The animals used were Hartley strain guinea pigs weighing 250-350 g, maintained with food and water ad libitum. The animals were shaved on their back and hind feet one day before use.
Each guinea pig was given an intravenous injection of 2 ml of Evans' blue dye solution into a foot vein. Immediately after, a series of six intradermal injections of 0.1 ml each were given, three on each side of the animal. They were: PAF 50 ng (0.1 ml of a 500 ng/ml solution); PAF 25 ng; and histamine diphosphate 2 μg. The left side injections contain 10 μg of test compound while the right side contain an equivalent amount of the ethanol vehicle to serve as a control.
Thirty minutes later the animals were killed by cervical dislocation and the skin reflected from the back. The lesion areas were approximated as the product of the largest diameter and normal diameter both in mm.

[5] = biological target: T1, PAF receptor; assay: Inhibition of PAF induced platelet aggregation in rabbit platelet rich plasma (PRP); assay type: cell-based, rabbit (male New Zealand White); set-up: immediately centrifuged at 800 rpm for 10 minutes at room temperature to recover the platelet rich plasma (PRP); endogenous in cells; host or cells: rabbit platelets in platelet rich plasma (male New Zealand White rabbits); settings: for IC50: IC50 (M) PRP, inhibition of PAF-induced platelet aggregation, rabbit platelet rich plasma
Experimental: as §1, §2, §3, §4, §5, §6, §7, §8, §9

Compound	Ki [1] [nM]	IC50 [1] [nM]	ED50 [2] [mg/kg]	ED50 [3] [mg/kg]	Inhibition of Vascular Permeability Lesion (% of Control) [4]	Ki [5] [nM]	IC50 ([5]; PAF challenge 1E-6M) [M]	IC50 ([5]; PAF challenge 1E-7M) [M]	IC50 ([5]; PAF challenge 5E-8M) [M]
CCCCCCCCCCCCCCCCCCNC(=O)OCC(COP(=O)([O-])Oc1ccccc1C[n+]1ccsc1)OC (centres unmarked) [3-[[2-[(1-Hydroxy-4-methoxy-7-oxo-2,6-dioxa-8-aza-1-phosphahexacosyl)oxy]phenyl]methyl]thiazolium, hydroxide, inner salt, P-oxide]	7.2	52	5	< 2.5	25 % of Control	310	2.5e-05	1.4e-06	5.6e-07
COC(COc1ccc(OCc2ccccc2)cc1)COP(=O)([O-])Oc1cccc(C[n+]2ccsc2)c1 (centres unmarked) [3-[[3-[[Hydroxy-2-methoxy-3-[4-(phenylmethoxy)phenoxy]propoxy]phosphinyl]oxy]phenyl]methyl]thiazolium, hydroxide, inner salt]			20	< 25	67 % of Control				3.3e-05
CCCCCCCCCCCCCCCCOCC(COP(=O)([O-])Oc1cccc(C[n+]2csc(C)c2)c1)OC (centres unmarked) [3-[[3-[[[3-(Hexadecyloxy)-2-methoxypropoxy]hydroxyphosphinyl]oxy]phenyl]methyl]-5-methylthiazolium, hydroxide, inner salt]	15	32	4.8	< 1.25	24 % of Control	210	1.2e-05	7.1e-07	8.2e-07
CCCCCCCCCCCCCCCCOCC(COP(=O)([O-])Oc1cccc(C[n+]2ccsc2)c1)OC (centres unmarked) [3-[[3-[[[3-(Hexadecyloxy)-2-methoxypropoxy]hydroxyphosphinyl]oxy]phenyl]methyl]thiazolium, hydroxide, inner salt]	8	17	5.6	< 1.25	25 % of Control	490	4.7e-05	1e-06	9.9e-07
CCCCCCCCCCCCOc1cccc(OCC(COP(=O)([O-])Oc2cccc(C[n+]3ccsc3)c2)OC)c1C (centres unmarked) [3-[[3-[[[3-[3-(Dodecyloxy)-2-methylphenoxy]-2-methoxypropoxy]hydroxyphosphinyl]oxy]phenyl]methyl]thiazolium, hydroxide, inner salt]			8.2	< 1.25	20.4 % of Control	510	2.4e-05	1.9e-06	2.3e-06
CCCCCCCCCCCCCCc1cccc(OCC(COP(=O)([O-])Oc2cccc(C[n+]3ccsc3)c2)OC)c1 (centres unmarked) [[[3-[[3-[[Hydroxy[2-methoxy-3-(3-tetradecylphenoxy)propoxy]phosphinyl]oxy]phenyl]methyl]thiazolium, hydroxide, inner salt]	1.4	9.5	5.3	< 1.25	3.8 % of Control	210	4e-06	9.5e-07	8.1e-07
